The values that follow come from US20240166662A1, “THIOPHENE BASED COMPOUNDS AND USE THEREOF AS BCKDK INHIBITORS” (Ramino-Bio Ltd., priority 2021, published 2024).

SMILES strings stand for the structures. Like-named read-outs stand apart in the source and are kept apart here.

For one data set, the system named is BCKDH. As to conditions: WT and iMSUD patient derived lymphoblasts; cited from earlier work.
The target of data set [1] is T1, BDK (Homo sapiens, UniProt O14874).
T1 construct: endogenous in cells; host or cells: human lymphoblasts
Description: BDK inhibitory activity in cell culture (human lymphoblasts). It is filed as cell-based.

Data set [2] deals with T2, BDK (MBP-BDK) (UniProt Q00972).
T2 construct: IC50 BDK; other: cell-free BDK activity assay; other: in-vitro; assay not specified
Description: Cell-free BDK activity assay (ADP-Glo kinase kit). As to conditions: cell-free BDK activity assay. The data set is classed as biochemical. An excerpt: (§1) Cell-free BDK activity assay was developed based on protocols and published work of David Chuang as described in Tso et al. 2014. Briefly, The main components of the enzymatic cell-free activity assay are the kinase-BDK (MBP-BDK), its 14 kDa synthetic substrate Lip-LBD-PhP, and ATP. The detection is being done with Promega ADP-Glo™ kinase kit. The assay is robust generating an assay window (AW)>5 and Z′−factor>0.5. The concentrations of all assay components were reduced relative to published concentrations and the assay was validated using known BDK inhibitors.
(§2) Constructs: a synthetic 14 KDa peptide that serves as a substrate for BDK instead of the multimeric BCKDH. This peptide, named LBD-PhP, is composed of the lipoyl binding domain (LBD) of the BCKDH E2 subunit connected by a linker to the phosphorylation peptide (PhP) of the E1α subunit. LBD-PhP is lipoylated in vitro using the E. Coli enzyme—lipoylate ligase (Lp1A) to achieve enhancement of BDK substrate phosphorylation. Additionally, a chimeric BDK in which the kinase is fused in its N-terminus to MBP, generating-MBP-BDK to increase BDK solubility and stability.
(§3) Reaction: The ADP detection is composed of the following steps:
(§4) Kinase reaction is performed by adding BDK, lip-LBD-PhP and ATP and incubating for 60 min at room temperature. This is done in solid white 384-well plates and the total volume of the reaction is 10 μl.
(§5) ADP-Glo reagent is added to terminate the kinase reaction and to deplete the remaining ATP and incubated for 40 min.
(§6) Kinase detection reagent is added for ADP detection: The ADP is converted to ATP and using a series of enzymatic reactions the newly synthesized ATP generates a luminescent signal which is proportional to the amount of the initial ADP formed by the kinase reaction. Luminescence is measured using a plate reader (Tecan Spark 20M plate reader).
(§7) In a typical experiment the AW and Z-factor are calculated from 12 repeats of positive control (100% activity) and 12 repeats of negative control (0% activity).
(§8) Positive control (100% activity)=maximal kinase activity with ATP and substrate. Negative control (0% activity)=minimal kinase activity with ATP alone (no substrate). AW: Average100%/Average0%. Z-factor: 1−((3*STDEV100%+3*STDEV0%)/(Average100%−Average0%)).
(§9) Each 384-well plate-based screening experiment includes serial dilutions of 14 different compounds and the following controls: 1. A known BDK tool compound BT2 (for allosteric inhibitors)/Radicicol (for ATP-pocket inhibitors) 2. Twelve repeats of positive and negative controls. Analyzed compounds and tool compounds are serially diluted, 8-point half log from 50 μM to 16 nM in triplicates. The positive and negative controls are used to calculate AW and Z-factor and to enable data normalization.

Data set [3] can be described thus: Plasma protein binding (mouse). It is filed as in vitro ADME. The text has this: (§10) Various pharmacokinetic parameters of exemplary compounds of the invention have been established in-vivo and are presented in Table 2 below.
A short description of data set [4]: Plasma protein binding (human). It is filed as in vitro ADME.
Text: as §10

Data set [5] can be described thus: Pharmacokinetic parameters in-vivo (IV, IP, PO). The following applies: for AUC: read-out: Exposure (AUC); for bioavailability: read-out: Oral bioavailability (F); for Vd: read-out: Volume of distribution (Vd).
Text: as §10

The target of data set [6] is T1, BDK. The data set is described as follows: Cell-based ELISA of BDK activity (E1α phosphorylation level) in WT and iMSUD patient derived lymphoblasts. As to conditions: WT and mutant lymphoblasts derived from iMSUD patients. The text has this: Accordingly, the inventors performed cell studies in order to test the efficacy of the exemplary compounds of the invention on the BCKDH E1α subunit phosphorylation level, as it is BDK substrate in WT and iMSUD lymphoblasts and fibroblasts. Efficacy of the tested compounds RMO-1154 and RMO-800 in 2 MSUD lymphoblasts lines has been determined using cell-based ELISA to quantify BDK activity in treated cells as monitored by the phosphorylation level of BDK substrate, E1α. Healthy donor cells and BT2 (commercially available BDK inhibitor) have been used as positive controls.
(In an ELISA, binding on a coated surface is turned into a signal by an enzyme label.)

Data set [7] has as its system BDK (MBP-BDK). Description: Cell-free BDK activity assay (ADP-Glo kinase kit). The data set is classed as biochemical. The following applies: in-vitro.
Text: as §1, §2, §3, §4, §5, §6, §7, §8, §9
For orientation: In ADP-Glo the light output rises with the ADP produced.

Data set [8] concerns BCKA (KIV, KIC, KMV) plasma concentration. Description: In-vivo BCKA plasma concentration in WT mice by LC-MS. As to conditions: for reduction of BCKA (such as KIC and/or KMV) plasma concentrations: 3 single doses a day for 7 days, day 8, WT mice. The text has this:
An alternative assay for assessment of BCKDH activity comprises measuring of BCKAs blood (e.g. plasma) concentration within the subject. BCKAs (such as a-keto isovalerate (abbreviated as KIV), sodium a-keto isocaproate (abbreviated as KIC), sodium a-keto β-methylvalerate (abbreviated as KMV)) are downstream metabolites of BCAAs, and the substrates of BCKDH complex, and are considered to be reliable and sensitive biomarkers for BDK inhibition and BCKDH complex activity enhancement.
BCKA blood concentration of a subject can be determined by various analytical methods, such as by LC-MS.
The inventors performed an in-vivo study by administering an exemplary compound of the invention (RMO-1154) to 8-10 week-old […] WT mice (n=5). RMO-1154 has been administered (per os, 3 single doses a day every 8 hrs, for 7 days) at various single doses (10 mg/kg, 30 mg/kg, and 100 mg/kg). At day 8, KIV, KIC and KMV plasma concentration has been determined by LC-MS.

The mark [9] stands for this setting: human lymphoblasts, read-out: IC50 lymphoblasts.

Regarding `CC(=O)Nc1nonc1NC(=O)c1sc2cc(Cl)ccc2c1Cl` [BT3], in the data set with BCKDH, the “BCKDH activity (in words)” value is “increase of the BCKDH activity”.
As to `O=C(O)c1[se]c2cc(Cl)ccc2c1Cl` [RMO-1152, 3,6-dichlorobenzo[b]selenophene-2-carboxylic acid], at BDK [1] (lymphoblasts cells, unit inferred), the half-maximal inhibitory concentration (IC50) – broadly, the concentration that gives 50% inhibition – fell in the range of 2.86 to 13.6 µM.
Regarding `O=C(O)c1sc2sccc2c1F` [RMO-1153, 4-fluorothieno[2,3-b]thiophene-5-carboxylic acid], the IC50 at BDK (MBP-BDK) [2] is 0.49 µM; at BDK [1] (setting [9]) it was 0.29 µM.
The matching figures for `O=C(O)c1cc2c(F)sc(F)c2s1` [RMO-1149, 4,6-difluorothieno[3,4-b]thiophene-2-carboxylic acid]: 0.8 µM and 0.38 µM.
For the compound `O=C(O)c1sc2cc(Cl)ccc2c1Cl` [BT2], the “BCKDH activity (in words)” value in the data set on BCKDH was “increase of the BCKDH activity”.
Consider `O=C(O)c1cc2c(F)c(F)sc2s1` [RMO-800, 4,5-difluorothieno[2,3-b]thiophene-2-carboxylic acid], for which the concentration for half-maximal inhibition (IC50) against BDK (MBP-BDK) [2] and on BDK [1] (setting [9]) was 0.1 µM throughout. Further, the fraction unbound (as a rule, free concentration divided by total concentration) in data set [3] was 0.012; in data set [4], 0.008. Moreover, the AUC (usually the area under the concentration-time curve, a measure of exposure) in [5] (ip, 3 mg/kg) amounted to 14700 ng·h/mL; in [5] (iv, 1 mg/kg) it was 3580 ng·h/mL; in [5] (po, 3 mg/kg) it was 12700 ng·h/mL. For the same compound, the bioavailability in data set [5] (ip, 3 mg/kg) was 136%; in data set [5] (po, 3 mg/kg), 118%. In addition, in [5] (iv, 1 mg/kg), the Vd amounted to 0.16 L/kg. Also, the “BDK inhibitory activity (FIGS. 1A-1B, in words)” value on BDK [6] was “BDK inhibitory activity”.
For the compound `O=C(O)c1sc2cc(F)ccc2c1Cl` [BT2F], in the data set on BCKDH, the “BCKDH activity (in words)” value is listed as “increase of the BCKDH activity”.
Turning to `O=C(O)c1cc2cscc2s1`, the “BDK inhibitory activity in-vitro (in words)” value with BDK (MBP-BDK) [7] is on record as “significant BDK inhibitory activity”.
In the case of `O=C(O)c1sc2sc(F)cc2c1F` [RMO-801, 2,4-difluorothieno[2,3-b]thiophene-5-carboxylic acid], the IC50 came out at 0.47 µM against BDK (MBP-BDK) [2] and 0.17 µM at BDK [1] (setting [9]).
`O=C(O)c1cc2cc(F)sc2s1` [RMO-1153B, 5-fluorothieno[2,3-b]thiophene-2-carboxylic acid] returned an IC50 at BDK (MBP-BDK) [2] of 0.61 µM.
For `O=C(O)c1sc2cscc2c1F` [RMO-1154, 3-fluorothieno[3,4-b]thiophene-2-carboxylic acid], the results for the IC50 against BDK (MBP-BDK) [2] and at BDK [1] (setting [9]) were 0.56 µM and 0.58 µM, respectively. Moreover, the free fraction (fraction unbound) was 0.108 in data set [3] and 0.015 in data set [4]. Besides, the AUC in data set [5] (ip, 3 mg/kg) turned out to be 18000 ng·h/mL; in [5] (iv, 1 mg/kg), 6130 ng·h/mL; in data set [5] (po, 3 mg/kg) it was 19400 ng·h/mL. The bioavailability in [5] (ip, 3 mg/kg) came to 98%; in data set [5] (po, 3 mg/kg), 104%. The Vd in [5] (iv, 1 mg/kg) is 0.15 L/kg. Moreover, the “BDK inhibitory activity (FIGS. 1A-1B, in words)” value at BDK [6] is on record as “BDK inhibitory activity”. Also, the entries for the “reduction of BCKA (such as KIC and/or KMV) plasma concentrations” value in data set [8] (10 mg/kg per os), in [8] (30 mg/kg per os) and in data set [8] (100 mg/kg per os) were “about 2 fold”, 8-10 fold and 10-12 fold, respectively. Besides, the “in-vivo reduction of BCKA (KIV, KIC, KMV) concentration in plasma (FIG. 2, in words)” value in [8] (WT mice, day 8) is “dose dependent in-vivo reduction”.
